Test results from patent US8404930B2, “Methods for improving monocot transformation” (Pioneer Hi-Bred International, Inc., priority 2009, dated 2013).
Several values for one entry are separate records, joined by “and”; a condition that tells them apart may be missing. Identical values can stand only once. Like-named read-outs stand apart in the source and are kept apart here.

Assays:
[1] = tested on: Sorghum line TX430 immature embryos; details: for Transformation frequency (%): dark
Method: (§1) Sorghum line TX430 immature embryos (9-15 DAP when embryo size around 0.8-2.5 mm) were infected with 1×10^9cfu/mL Agrobacterium LBA4404 containing superbinary vector PHPMYFP in PHI-I liquid medium. The embryos were co-cultivated on PHI-T medium plates at 25° C. (ranged 21-25° C.) in dark for 3 days (ranged 1-7 days).
(§2) The whole selection step was in dark at 28° C. After two to three months from the initiation of the experiment, transgenic callus events were cultured for plant regeneration on the same regeneration medium (PHI-RF and PHI-Z) at the regular regeneration conditions.
Transformation frequency was calculated by the number of embryos producing transgenic callus capable of regeneration divided by the number of embryos infected by Agrobacterium

[2] = tested on: Sorghum line TX430 immature embryos
Method: as §1
The whole selection step was in dark or dim light at 28° C. After two to three months from the initiation of the experiment, transgenic callus events were cultured for plant regeneration on the same regeneration medium (PHI-RF and PHI-Z) at the regular regeneration conditions.
(§3) Transformation frequency was calculated by the number of embryos producing transgenic plants divided by the number of embryos infected by Agrobacterium.

[3] = tested on: Maize inbred PHR03 immature embryos; details: for Transformation frequency (%): dark
Method: (§4) Maize inbred PHR03 immature embryos (9-13 DAP when embryo size around 0.8-2.5 mm) were infected with 5×10^8 cfu/mL Agrobacterium LBA4404 containing superbinary vector PHPMRFP in PHI-I liquid medium. The embryos were then co-cultivated on PHI-T co-cultivation media plates at 21° C. in dark conditions for 3 days. This may range from 1-7 days.
(§5) The embryos were subcultured every 2-3 weeks.
(§6) A regeneration step is followed by culturing the putative transgenic callus on PHI-RF medium plates for producing shoots and a rooting step on medium plates PHI-RR.
Transformation frequency was calculated by the number of embryos producing transgenic callus capable of regenerating plants divided by the number of embryos infected by Agrobacterium.

[4] = tested on: Maize inbred PHR03 immature embryos; experiment: Transformation frequency of maize using various light intensities (Example 18); assay type: cell-based; details: 4 μM copper in DBC3 resting and selection media
Method: as §4, §5
A regeneration step was followed by culturing the putative transgenic callus on PHI-RF medium plates for producing shoots and a rooting step on medium plates PHI-RR.
as §3

[5] = tested on: Maize inbred PHR03 immature embryos; details: for Transformation frequency (%): dark; remark: listed apart in the source
Method: as §4, §5, §6, §3

[6] = tested on: Sorghum line TX430 immature embryos; details: for Transformation frequency (%): dark; remark: listed apart in the source
Method: as §1, §2
Transformation frequency was calculated by the number of embryos producing transgenic plants divided by the number of embryos infected by Agrobacterium

[7] = 0.1 μM copper (negative control) in DBC3 resting and selection media, Average of exp 1-4
[8] = 0.1 μM copper (negative control) in DBC3 resting and selection media, single experiments exp 1-4
[9] = 5 μM copper in DBC3 resting and selection media, Average of exp 1-4

SMILES: O=S(=O)([O-])[O-].[Cu+2] [copper, cupric sulfate]
- Transformation frequency (%) ([1]; 0.1 μM copper in DBC3 resting and selection media, Average of exp 1-2): 10.0%
- Transformation frequency (%) ([1]; 0.1 μM copper in DBC3 resting and selection media, single experiments exp 1-2): 15.0% and 5.0%
- increase of transformation frequency over 0.1 μM copper ([1]; 1 μM copper and above, sorghum): two times
- Transformation frequency (%) ([1]; 1 μM copper in DBC3 resting and selection media, Average of exp 1-2): 23.8%
- Transformation frequency (%) ([1]; 1 μM copper in DBC3 resting and selection media, single experiments exp 1-2): 30.0% and 17.5%
- Transformation frequency (%) ([1]; 4 μM copper in DBC3 resting and selection media, Average of exp 1-2): 17.1%
- Transformation frequency (%) ([1]; 5 μM copper in DBC3 resting and selection media, Average of exp 1-2): 26.3%
- Transformation frequency (%) ([1]; 5 μM copper in DBC3 resting and selection media, single experiments exp 1-2): 27.5% and 25.0%
- Transformation frequency (%) ([2]; 4 μM copper in DBC3 resting and selection media, Dim light, Average of exp 1-2): 31.3%
- Transformation frequency (%) ([2]; 4 μM copper in DBC3 resting and selection media, dark, Average of exp 1-2): 17.1%
- Transformation frequency (%) ([2]; 5 μM copper in DBC3 resting and selection media, Dim light, Average of exp 1-2): 20.0%
- Transformation frequency (%) ([2]; 5 μM copper in DBC3 resting and selection media, dark, Average of exp 1-2): 26.3%
- Transformation frequency (%) ([2]; 5 μM copper in DBC3 resting and selection media, dark, single experiments exp 1-2): 27.5% and 25.0%
- Transformation frequency (%) [3, 7]: 4.4%
- Transformation frequency (%) [3, 8]: 2.5% and 5.0% and 7.5%
- increase of transformation frequency over 0.1 μM copper ([3]; 1 μM copper and above, maize): 3-5 times
- Transformation frequency (%) ([3]; 1 μM copper in DBC3 resting and selection media, Average of exp 1-4): 16.9%
- Transformation frequency (%) ([3]; 1 μM copper in DBC3 resting and selection media, single experiments exp 1-4): 15% and 17.5% and 20%
- Transformation frequency (%) ([3]; 4 μM copper in DBC3 resting and selection media, Average of exp 1-4): 11.9%
- Transformation frequency (%) [3, 9]: 23.1%
- Transformation frequency (%) ([4]; Dark, single experiments exp 1-4): 10% and 17.5% and 12.5% and 7.5%
- Transformation frequency (%) ([4]; Dim light, Average of exp 1-4): 17.5%
- Transformation frequency (%) ([4]; dark, Average of exp 1-4): 11.9%
- Transformation frequency (%) ([5]; 0.1 μM copper (negative control) in DBC3 resting and selection media, Average of exp 1-5): 2.9%
- Transformation frequency (%) ([5]; 0.1 μM copper (negative control) in DBC3 resting and selection media, single experiments exp 1-5): 5.0% and 0.0% and 10.0%
- increase of transformation frequency over 0.1 μM copper ([5]; 5 μM copper and above, maize): 4-7 times
- Transformation frequency (%) ([5]; 5 μM copper in DBC3 resting and selection media, Average of exp 1-5): 23.5%
- Transformation frequency (%) ([5]; 10 μM copper in DBC3 resting and selection media, Average of exp 1-5): 19.0%
- Transformation frequency (%) ([5]; 30 μM copper in DBC3 resting and selection media, Average of exp 1-5): 14.0%
- Transformation frequency (%) ([5]; 50 μM copper in DBC3 resting and selection media, Average of exp 1-5): 21.0%
- Transformation frequency (%) [6, 7]: 2.0%
- Transformation frequency (%) [6, 8]: 3.33% and 2.50% and 0.00%
- increase of transformation frequency over 0.1 μM copper ([6]; 5 μM copper and above, sorghum): 4-6 times
- Transformation frequency (%) [6, 9]: 13.8%
- Transformation frequency (%) ([6]; 5 μM copper in DBC3 resting and selection media, single experiments exp 1-4): 16.67% and 15.00% and 8.33%
- Transformation frequency (%) ([6]; 10 μM copper in DBC3 resting and selection media, Average): 13.0%
- Transformation frequency (%) ([6]; 10 μM copper in DBC3 resting and selection media, single experiments exp 1-4): 20.00% and 10.00% and 12.50%
- Transformation frequency (%) ([6]; 30 μM copper in DBC3 resting and selection media, Average of exp 1-4): 8.2%
- Transformation frequency (%) ([6]; 50 μM copper in DBC3 resting and selection media, Average of exp 1-4): 9.6%
- Transformation frequency (%) ([6]; 50 μM copper in DBC3 resting and selection media, single experiments exp 1-4): 5.00% and 10.00% and 11.11%
